The text below walks through data of patent US10766894B2, “Aza-indazole compounds for use in tendon and/or ligament injuries” (NOVARTIS AG, priority 2016, dated 2020).

SMILES strings stand for the structures. Like-named read-outs stand apart in the source and are kept apart here. A value given as a limit tells only on which side of the number the result lay.

Test [1] deals with mouse immortalized TT-D6 Scx-luciferase (ScxL) cell line; transcriptional activation of Scleraxis (Scx) gene. As to the kind of experiment: SCX-LUC in vitro assay (scleraxis promoter luciferase reporter). Format: cell-based. To be noted: Mus musculus.
The test system of test [2] is Scleraxis (Scx) gene expression in rat tail tendon fascicles. As to the kind of experiment: Ex vivo assay, tendon fascicles, Scleraxis mRNA (qPCR). Format: cell-based, Sprague Dawley rat. To be noted: 96 h.
For test [3], the system named is Tenomodulin (Tnmd) gene expression in rat tail tendon fascicles. As to the kind of experiment: Ex vivo assay, tendon fascicles, Tenomodulin mRNA (qPCR). It counts as cell-based, Sprague Dawley rat. The conditions noted are these: 96 h.
Test [4] relates to collagen type 1 (Col1a2) gene expression in rat tail tendon fascicles. As to the kind of experiment: Ex vivo assay, tendon fascicles, collagen type 1 mRNA (qPCR). Format: cell-based, Sprague Dawley rat. To be noted: 96 h.
[5] abbreviates: 96 h, Table 1, TT-D6 Scx-luciferase cells, 1 ng/ml TGFβ1, four days, read-out: Scx-Luc (EC50 uM).
The mark [6] stands for this setting: Rattus norvegicus, read-out: Ex vivo SCX (EC50 uM).
Setting [7] is: Rattus norvegicus, read-out: Ex vivo Tnmd (EC50 uM).
Where [8] appears, read: Rattus norvegicus, read-out: Ex vivo Col1a2 (EC50 uM).
The mark [9] stands for this setting: 96 h, read-out: Scx-Luc (EC50 uM).
The mark [10] stands for this setting: 96 h, Examples table, TT-D6 Scx-luciferase cells, 1 ng/ml TGFβ1, four days, read-out: Scx-Luc (EC50 μM).
Setting [11] is: Examples table, rat tail tendon fascicles, four days, delta-delta Ct, read-out: Ex vivo Scx (EC50 μM).
[12] abbreviates: Examples table, rat tail tendon fascicles, four days, delta-delta Ct, read-out: Ex vivo Tnmd (EC50 μM).
[13] abbreviates: Examples table, rat tail tendon fascicles, four days, delta-delta Ct, read-out: Ex vivo Col1a2 (EC50 μM).

Consider `Cc1cc(Nc2nc(N[C@@H](C)c3ncc(F)cn3)ncc2Cl)n[nH]1` [reference compound], for which the EC50 in test [1] (setting [5]) was 0.008 µM; in test [2] (setting [6]), 3.37 µM; in test [3] (setting [7]) it was 3.3 µM; in test [4] (setting [8]) it was 2.61 µM.
Consider `CC[C@@](C)(Nc1ccnc(-c2c[nH]c3ncccc23)n1)C(=O)NCC(F)(F)F` [reference compound], for which the EC50 in test [1] (setting [9]) came to 0.03 µM; in test [2] (setting [6]), 1.65 µM; in test [3] (setting [7]), 1.77 µM; in test [4] (setting [8]), 0.88 µM.
For the compound `Nc1n[nH]c2ccc(-c3ccc(S(=O)(=O)N[C@@H]4CCC[C@@H]4O)cc3Cl)nc12` [Example 7, 4-(3-amino-1H-pyrazolo[4,3-b]pyridin-5-yl)-3-chloro-N-((1R,2S)-2-hydroxycyclopentyl)benzenesulfonamide], the half-maximal effective concentration (EC50) in test [1] (setting [10]) was 0.305 µM; in test [2] (setting [11]) it was 1.6 µM; in test [3] (setting [12]), 1.68 µM; in test [4] (setting [13]) it was 2.06 µM.
Take `Nc1n[nH]c2ccc(-c3ccc(S(=O)(=O)N4CC(F)(F)C[C@H]4CO)cc3Cl)nc12` [Example 18, (S)-(1-((4-(3-amino-1H-pyrazolo[4,3-b]pyridin-5-yl)-3-chlorophenyl)sulfonyl)-4,4-difluoropyrrolidin-2-yl)methanol]: the EC50 amounted to 0.764 µM in test [1] (setting [10]), 1.77 µM in test [2] (setting [11]), 0.75 µM in test [3] (setting [12]) and 1.83 µM in test [4] (setting [13]).
Taken in the same sequence, the figures for `Nc1n[nH]c2ccc(-c3ccc(S(=O)(=O)Nc4ccccc4)cc3Cl)nc12` [Example 38, 4-(3-amino-1H-pyrazolo[4,3-b]pyridin-5-yl)-3-chloro-N-phenylbenzenesulfonamide] were 0.61 µM, 0.188 µM, 1.89 µM and 0.396 µM.
In the same order, the values of `Nc1n[nH]c2ccc(-c3ccc(S(=O)(=O)NCCO)cc3Cl)nc12` [Example 72, 4-(3-amino-1H-pyrazolo[4,3-b]pyridin-5-yl)-3-chloro-N-(2-hydroxyethyl)benzenesulfonamide] are 4.09 µM, 3.94 µM, 3.42 µM and 3.28 µM.
In the same order, the values of `Cc1cc(S(=O)(=O)NC2CC(F)(F)C2)ccc1-c1ccc2[nH]nc(N)c2n1` [Example 8, 4-(3-amino-1H-pyrazolo[4,3-b]pyridin-5-yl)-N-(3,3-difluorocyclobutyl)-3-methylbenzenesulfonamide] are 0.346 µM, 0.11 µM, 0.261 µM and 1.29 µM.
Turning to `CS(=O)(=O)C1CN(S(=O)(=O)c2ccc(-c3ccc4[nH]nc(N)c4n3)c(Cl)c2)C1` [Example 93, 5-(2-chloro-4-((3-(methylsulfonyl)azetidin-1-yl)sulfonyl)phenyl)-1H-pyrazolo[4,3-b]pyridin-3-amine], the EC50 in test [1] (setting [10]) was 5.74 µM; in test [2] (setting [11]), 2.95 µM; in test [3] (setting [12]) it was 3.52 µM; in test [4] (setting [13]), 1.76 µM.
In the same order, the values of `Nc1n[nH]c2ccc(-c3ccc(S(=O)(=O)NC4CS(=O)(=O)C4)cc3Cl)nc12` [Example 92, 4-(3-amino-1H-pyrazolo[4,3-b]pyridin-5-yl)-3-chloro-N-(1,1-dioxidothietan-3-yl)benzenesulfonamide] are 0.968 µM, 4.89 µM, 6.28 µM and 1.35 µM.
With `O=C(Nc1nc2cccc(-c3ccc(OCc4cccnc4)cc3)n2n1)C1CC1` [reference compound], the EC50 in test [1] (setting [5]) is 0.02 µM; in test [2] (setting [6]), 0.36 µM; in test [3] (setting [7]), 5.99 µM; in test [4] (setting [8]) it was 0.4 µM.
With `Nc1n[nH]c2ccc(-c3ccc(S(=O)(=O)NC4CCS(=O)(=O)CC4)cc3Cl)nc12` [Example 50, 4-(3-amino-1H-pyrazolo[4,3-b]pyridin-5-yl)-3-chloro-N-(1,1-dioxidotetrahydro-2H-thiopyran-4-yl)benzenesulfonamide], the EC50 is greater than 10 µM in test [1] (setting [10]), 2.33 µM in test [2] (setting [11]), 6.3 µM in test [3] (setting [12]) and 6.37 µM in test [4] (setting [13]).
In the same order, the values of `Cc1cc(S(=O)(=O)Nc2ccccc2)ccc1-c1ccc2[nH]nc(N)c2n1` [Example 16, 4-(3-amino-1H-pyrazolo[4,3-b]pyridin-5-yl)-3-methyl-N-phenylbenzenesulfonamide] are 0.61 µM, 3.86 µM, 2.81 µM and 4.65 µM.
`N#CC[C@H](C1CCCC1)n1cc(-c2ncnc3[nH]ccc23)cn1` [reference compound]: the EC50 in test [1] (setting [9]) is 0.12 µM; in test [2] (setting [6]), 3.13 µM; in test [3] (setting [7]) it was 0.74 µM; in test [4] (setting [8]) it was 2.64 µM.
Turning to `Nc1n[nH]c2ccc(-c3ccc(S(=O)(=O)N4CC5CC5C4)cc3Cl)nc12` (stereo not drawn) [Example 63, 5-(4-(3-azabicyclo[3.1.0]hexan-3-ylsulfonyl)-2-chlorophenyl)-1H-pyrazolo[4,3-b]pyridin-3-amine], the EC50 in test [1] (setting [10]) came out at 1.24 µM; in test [2] (setting [11]), 2.12 µM; in test [3] (setting [12]) it was 4.6 µM; in test [4] (setting [13]), 3.34 µM.
Take `Nc1n[nH]c2ccc(-c3ccc(NS(=O)(=O)c4ccc(F)c(F)c4)cc3Cl)nc12` [Example 10, N-(4-(3-amino-1H-pyrazolo[4,3-b]pyridin-5-yl)-3-chlorophenyl)-3,4-difluorobenzenesulfonamide]: the EC50 in test [1] (setting [10]) was found to be 0.64 µM.
Still for that read-out and setting: then `Cc1cc(S(=O)(=O)N[C@H]2C[C@H](O)C2)ccc1-c1ccc2[nH]nc(N)c2n1` [Example 77, 4-(3-amino-1H-pyrazolo[4,3-b]pyridin-5-yl)-N-((1r,3r)-3-hydroxycyclobutyl)-3-methylbenzenesulfonamide], with 0.777 µM.
Consider `Nc1n[nH]c2ccc(-c3ccc(S(=O)(=O)N4CC(F)(F)C4)cc3Cl)nc12` [Example 74, 5-(2-chloro-4-((3,3-difluoroazetidin-1-yl)sulfonyl)phenyl)-1H-pyrazolo[4,3-b]pyridin-3-amine], for which, in test [1] (setting [10]), the EC50 amounted to 2.03 µM.
In the case of `Cc1cc(S(=O)(=O)N[C@H]2CC[C@@](O)(C(F)(F)F)CC2)ccc1-c1ccc2[nH]nc(N)c2n1` [Example 68, 4-(3-amino-1H-pyrazolo[4,3-b]pyridin-5-yl)-N-((1r,4r)-4-hydroxy-4-(trifluoromethyl)cyclohexyl)-3-methylbenzenesulfonamide], the EC50 in test [1] (setting [10]) is 0.354 µM.
On the same count and under the same terms, then `COc1ccc(S(=O)(=O)Nc2ccc(-c3ccc4[nH]nc(N)c4n3)c(Cl)c2)cc1NC(C)=O` [Example 61, N-(5-(N-(4-(3-amino-1H-pyrazolo[4,3-b]pyridin-5-yl)-3-chlorophenyl)sulfamoyl)-2-methoxyphenyl)acetamide], with 1.54 µM.
Same read-out and setting: to `Cc1cc(S(=O)(=O)N2CC(F)(F)CC2C(N)=O)ccc1-c1ccc2[nH]nc(N)c2n1` (stereo not drawn) [Example 34, 1-((4-(3-amino-1H-pyrazolo[4,3-b]pyridin-5-yl)-3-methylphenyl)sulfonyl)-4,4-difluoropyrrolidine-2-carboxamide] belongs 5.02 µM.
On the same count and under the same terms, to `Nc1n[nH]c2ccc(-c3ccc(NS(=O)(=O)c4ccc(OC(F)(F)F)cc4)cc3Cl)nc12` [Example 88, N-(4-(3-amino-1H-pyrazolo[4,3-b]pyridin-5-yl)-3-chlorophenyl)-4-(trifluoromethoxy)benzenesulfonamide] belongs 2.43 µM; to `Cc1ccc(O)c(S(=O)(=O)Nc2ccc(-c3ccc4[nH]nc(N)c4n3)c(Cl)c2)c1` [Example 32, N-(4-(3-amino-1H-pyrazolo[4,3-b]pyridin-5-yl)-3-chlorophenyl)-2-hydroxy-5-methylbenzenesulfonamide], 1.94 µM.
On to `Nc1n[nH]c2ccc(-c3ccc(S(=O)(=O)N[C@@H]4CCC[C@H]4O)cc3Cl)nc12` [Example 29, 4-(3-amino-1H-pyrazolo[4,3-b]pyridin-5-yl)-3-chloro-N-((1R,2R)-2-hydroxycyclopentyl)benzenesulfonamide], for which, in test [1] (setting [10]), the EC50 was found to be 1.91 µM.
Still for that read-out and setting: then `N#Cc1cccc(S(=O)(=O)Nc2ccc(-c3ccc4[nH]nc(N)c4n3)c(Cl)c2)c1` [Example 22, N-(4-(3-amino-1H-pyrazolo[4,3-b]pyridin-5-yl)-3-chlorophenyl)-3-cyanobenzenesulfonamide], with 0.035 µM; and `Cc1cc(S(=O)(=O)N[C@H]2C[C@@H](CO)C2)ccc1-c1ccc2[nH]nc(N)c2n1` [Example 47, 4-(3-amino-1H-pyrazolo[4,3-b]pyridin-5-yl)-N-((1s,3s)-3-(hydroxymethyl)cyclobutyl)-3-methylbenzenesulfonamide], with 5.34 µM; and `NC(=O)[C@H]1C[C@@H](F)CN1S(=O)(=O)c1ccc(-c2ccc3[nH]nc(N)c3n2)c(Cl)c1` [Example 55, (2R,4R)-1-((4-(3-amino-1H-pyrazolo[4,3-b]pyridin-5-yl)-3-chlorophenyl)sulfonyl)-4-fluoropyrrolidine-2-carboxamide], with 6.16 µM.
Take `Nc1n[nH]c2ccc(-c3ccc(S(=O)(=O)N4CCC[C@H]4CO)cc3Cl)nc12` [(S)-(1-((4-(3-amino-1H-pyrazolo[4,3-b]pyridin-5-yl)-3-chlorophenyl)sulfonyl)pyrrolidin-2-yl)methanol]: the EC50 in test [1] (further compounds not numbered as examples, read-out: EC50 in the Scx-Luc assay) was greater than 10 µM.
